Measured values as given in ChEMBL document CHEMBL1221365, “Evelynin, a cytotoxic benzoquinone-type Retro-dihydrochalcone from Tacca chantrieri” (J Nat Prod, 2010).
Activity calls are given as the source filed them. No cut-off for these calls is given here.

Key:
HeLa [1] = assay: Inhibition of beta-tubulin assembly in human HeLa cells assessed as effect on microtubule density at 5 uM after 18 hrs by immunofluorescence assay; type: cell-based
MDA-MB-435 = assay: Cytotoxicity against human MDA-MB-435 cells after 48 hrs by sulforhodamine B assay; type: functional, cell-based; conditions: MDA-MB-435, 48 h
HeLa [2] = assay: Cytotoxicity against human HeLa cells after 48 hrs by sulforhodamine B assay; type: functional, cell-based
PC-3 = assay: Cytotoxicity against human PC3 cells after 48 hrs by sulforhodamine B assay; type: functional, cell-based; conditions: PC-3, 48 h
MDA-MB-231 = assay: Cytotoxicity against human MDA-MB-231 cells after 48 hrs by sulforhodamine B assay; type: functional, cell-based; conditions: MDA-MB-231, 48 h
HeLa [3] = assay: Inhibition of beta-tubulin assembly in human HeLa cells assessed as effect on microtubule density up to 40 uM after 18 hrs by immunofluorescence assay; type: cell-based

COC1=CC(=O)C(CCC(=O)c2ccc(OC)c(OC)c2)=C(OC)C1=O [EVELYNIN]
inhibition (HeLa [1]): inactive | IC50 (MDA-MB-435): 4.1 µM | IC50 (HeLa [2]): 6.3 µM | IC50 (PC-3): 4.7 µM | IC50 (MDA-MB-231): 3.9 µM | inhibition (HeLa [3]): inactive
